The values that follow come from ChEMBL document CHEMBL1201862, “PubChem BioAssay data set” (2004).

Assay [1] concerns the target T1, Calpain-2 catalytic subunit (Sus scrofa, UniProt P43367).
T1 sequence (P43367 whole entry): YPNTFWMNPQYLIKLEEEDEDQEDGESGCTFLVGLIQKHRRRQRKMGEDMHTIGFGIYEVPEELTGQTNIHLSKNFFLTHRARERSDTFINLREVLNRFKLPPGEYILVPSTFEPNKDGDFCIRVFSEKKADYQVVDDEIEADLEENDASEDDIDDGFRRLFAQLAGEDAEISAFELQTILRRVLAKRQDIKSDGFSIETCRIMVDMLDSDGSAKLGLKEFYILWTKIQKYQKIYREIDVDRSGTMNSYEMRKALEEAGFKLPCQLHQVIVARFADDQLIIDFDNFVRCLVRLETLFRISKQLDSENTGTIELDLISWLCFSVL
Put plainly: m-calpain protease blockers, concentration series – biochemical, fluorogenic peptide substrate, dose response (AID 1420). In kind it is functional.

Assay [2] addresses T2, Replicative DNA helicase DnaB (Mycobacterium tuberculosis, UniProt P9WMR3).
T2 sequence (P9WMR3 whole entry): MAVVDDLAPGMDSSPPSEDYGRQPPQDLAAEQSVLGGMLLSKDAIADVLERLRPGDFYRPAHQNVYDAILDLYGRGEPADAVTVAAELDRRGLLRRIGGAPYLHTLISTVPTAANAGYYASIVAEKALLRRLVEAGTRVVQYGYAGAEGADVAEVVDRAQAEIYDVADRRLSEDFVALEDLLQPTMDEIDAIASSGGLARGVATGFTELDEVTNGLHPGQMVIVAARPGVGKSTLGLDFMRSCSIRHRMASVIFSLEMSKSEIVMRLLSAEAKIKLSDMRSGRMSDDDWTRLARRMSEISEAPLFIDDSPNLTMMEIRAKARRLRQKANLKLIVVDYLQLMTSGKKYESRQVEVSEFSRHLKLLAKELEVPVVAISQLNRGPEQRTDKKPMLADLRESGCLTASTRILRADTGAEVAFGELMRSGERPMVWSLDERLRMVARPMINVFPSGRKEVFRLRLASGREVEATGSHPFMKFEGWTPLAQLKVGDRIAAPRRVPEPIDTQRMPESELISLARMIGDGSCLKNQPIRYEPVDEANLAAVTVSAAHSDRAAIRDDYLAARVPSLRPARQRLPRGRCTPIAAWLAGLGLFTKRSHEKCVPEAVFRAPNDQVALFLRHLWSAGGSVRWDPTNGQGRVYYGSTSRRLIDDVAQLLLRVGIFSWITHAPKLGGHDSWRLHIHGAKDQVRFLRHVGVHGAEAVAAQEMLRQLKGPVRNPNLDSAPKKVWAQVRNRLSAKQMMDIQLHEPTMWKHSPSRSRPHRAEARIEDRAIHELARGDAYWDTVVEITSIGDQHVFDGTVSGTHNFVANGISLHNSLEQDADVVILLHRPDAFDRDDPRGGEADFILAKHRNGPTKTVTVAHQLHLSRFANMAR
Put plainly: DnaB intein splicing inhibitors, dose response, biochemical, cell-free fluorescence (AID 449749). In kind it is functional.

Assay [3] has as its target T3, Protein RecA (Mycobacterium tuberculosis, UniProt P9WHJ3).
T3 sequence (P9WHJ3 whole entry): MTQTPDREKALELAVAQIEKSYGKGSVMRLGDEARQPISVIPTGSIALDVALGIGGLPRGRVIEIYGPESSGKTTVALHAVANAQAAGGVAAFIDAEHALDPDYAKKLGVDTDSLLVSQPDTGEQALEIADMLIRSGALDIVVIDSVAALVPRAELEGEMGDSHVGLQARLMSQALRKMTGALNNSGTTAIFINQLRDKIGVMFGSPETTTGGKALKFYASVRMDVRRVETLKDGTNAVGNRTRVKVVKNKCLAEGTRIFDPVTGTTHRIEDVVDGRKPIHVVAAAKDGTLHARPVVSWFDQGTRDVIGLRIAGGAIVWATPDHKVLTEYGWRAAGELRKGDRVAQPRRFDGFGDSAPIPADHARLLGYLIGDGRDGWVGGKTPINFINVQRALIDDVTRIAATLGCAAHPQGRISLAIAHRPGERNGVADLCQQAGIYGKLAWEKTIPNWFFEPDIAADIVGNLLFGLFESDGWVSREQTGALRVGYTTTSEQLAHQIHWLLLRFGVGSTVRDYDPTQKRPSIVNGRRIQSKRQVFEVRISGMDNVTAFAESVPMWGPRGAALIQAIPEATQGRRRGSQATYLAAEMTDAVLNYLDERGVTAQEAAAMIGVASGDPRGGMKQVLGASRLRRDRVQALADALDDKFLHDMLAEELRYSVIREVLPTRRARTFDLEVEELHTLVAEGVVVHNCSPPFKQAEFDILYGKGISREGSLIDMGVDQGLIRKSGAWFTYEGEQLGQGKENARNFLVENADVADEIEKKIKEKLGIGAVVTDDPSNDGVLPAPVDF
Put plainly: Fluorescence Cell-Free Homogeneous Dose Retest to Identify Inhibitors of RecA-Intein Splicing Activity. [Related pubchem assays (depositor defined):AID2097, AID2223, AID489010, AID492950]. In kind it is functional.

Assay [4] has as its system H9c2. Put plainly: cells. In kind it is functional, cell-based. The note with it: Rattus norvegicus, H9c2, Myocardium.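 Further: confirmatory concentration-response retest of ultra-high-throughput screening hits for modulation of myocardial damage; cell death induced by hydrogen peroxide oxidative stress; compound pretreatment for 60 min then peroxide exposure for 2 h; potency is for protecting the cells against peroxide damage rather than for killing them.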
In assay [5] the target is T4, Cytochrome P450 1A2 (Homo sapiens, UniProt P05177).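 Further: PubChem cytochrome P450 panel assay, CYP1A2 panel member.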
T4 sequence (P05177 whole entry): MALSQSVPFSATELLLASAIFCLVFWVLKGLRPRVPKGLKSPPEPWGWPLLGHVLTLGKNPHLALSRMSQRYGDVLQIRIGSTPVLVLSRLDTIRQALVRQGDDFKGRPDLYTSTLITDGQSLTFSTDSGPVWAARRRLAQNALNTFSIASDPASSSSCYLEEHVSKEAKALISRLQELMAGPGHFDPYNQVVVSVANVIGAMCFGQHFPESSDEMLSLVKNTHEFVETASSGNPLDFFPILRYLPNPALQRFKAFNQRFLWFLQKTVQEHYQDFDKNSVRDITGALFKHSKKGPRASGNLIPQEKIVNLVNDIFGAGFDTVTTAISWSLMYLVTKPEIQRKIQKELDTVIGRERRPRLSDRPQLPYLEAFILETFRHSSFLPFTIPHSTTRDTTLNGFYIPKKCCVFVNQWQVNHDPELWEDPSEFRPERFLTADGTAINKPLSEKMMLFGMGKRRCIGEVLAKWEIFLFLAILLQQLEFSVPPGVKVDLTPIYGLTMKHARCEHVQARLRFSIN

Assay [6] has as its target Cytochrome P450 2D6 (Homo sapiens, UniProt P10635).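 Further: CYP2D6 member of a cytochrome P450 panel assay.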
The subject of assay [7] is H4. Put plainly: Luminescence Cell-Based Dose Response HTS to Identify Activators of 5'UTR Stem-Loop Driven Prion Protein mRNA Translation in H4 Neuroglioblastoma Cells. [Related pubchem assays: 1829 (Project Summary), 1814 (Primary HTS)]. In kind it is functional. The note with it: Homo sapiens.

Activity calls are given as the source filed them. Some results are limits rather than exact numbers.

Cytochrome P450 2D6, sequence (P10635 whole entry): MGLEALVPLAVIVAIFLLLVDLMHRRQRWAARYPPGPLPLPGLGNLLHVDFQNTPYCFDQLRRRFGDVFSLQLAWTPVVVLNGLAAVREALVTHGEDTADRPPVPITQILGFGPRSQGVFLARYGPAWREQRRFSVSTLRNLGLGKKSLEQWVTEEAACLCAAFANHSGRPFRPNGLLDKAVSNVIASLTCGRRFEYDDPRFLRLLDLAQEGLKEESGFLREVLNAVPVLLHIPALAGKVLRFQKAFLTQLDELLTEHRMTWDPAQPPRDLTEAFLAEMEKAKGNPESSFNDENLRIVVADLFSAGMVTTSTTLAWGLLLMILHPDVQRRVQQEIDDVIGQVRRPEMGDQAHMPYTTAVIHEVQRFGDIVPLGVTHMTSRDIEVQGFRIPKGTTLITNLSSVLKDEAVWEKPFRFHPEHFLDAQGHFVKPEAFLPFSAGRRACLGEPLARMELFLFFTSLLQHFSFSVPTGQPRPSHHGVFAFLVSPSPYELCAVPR

`CCOc1ccc(NC(=NCc2ccc3c(c2)OCO3)SC2CC(=O)N(c3ccccc3)C2=O)cc1` (configuration not stated): the IC50 (commonly the concentration at which inhibition is half-maximal) in assay [1] is > 50 µM (not active). Same read-out and setting: then `CN1CCN(CCc2nc3cc(NC(=O)c4ccco4)ccc3n2C)CC1`, with > 50 µM (not active).

As for `COc1ccc(-c2cc(CNC(=O)CCl)on2)cc1`, the AC50 – broadly, the midpoint of the concentration-response curve, whichever way the signal moves – in assay [2] is 262 µM (active). In assay [3], the concentration giving a half-maximal response (EC50) (commonly the concentration that produces a half-maximal response) was 17.7 µM (active). Take `CCOC(=O)C1=NN(C(=O)c2ccco2)C2(CC2)C1`: in assay [4], the IC50 was > 79 µM (inactive).

As for `O=C(OCc1nnn(Cc2ccccc2)c1-c1c(COC(=O)c2ccccc2)nnn1Cc1ccccc1)c1ccccc1`, the IC50 in assay [1] is 2.52 µM (not active). Turning to `CN(c1ccccc1)c1ccc([N+](=O)[O-])c2nonc12`, the AC50 in assay [2] was 74.7 µM (active). The EC50 in assay [3] was 5.22 µM (active).

Regarding `O=[N+]([O-])c1cc(-c2nnc(O)c3ccccc23)ccc1NCCO`, the IC50 in assay [4] is 16.6 µM (active).

Take `COCc1c(C(=O)Nc2ccc3nc(N4CCOCC4)sc3c2)oc2ccccc12`: the IC50 in assay [4] is > 79 µM (inactive). As for `CC(C)c1ccc(C(=O)NC(=S)NCc2cccnc2)cc1`, the IC50 in assay [1] is recorded as 27 µM (not active). Same read-out and setting: as for `CC(CCc1ccccc1)NC(=O)/C=C/c1ccc(F)cc1` (configuration not stated), the figure is 27.6 µM (not active). With `O=C1CC(c2cccnc2)=NN1c1ccccc1`, the concentration at half-maximal activity (AC50) in assay [2] was 3.7 µM (active). The half-maximal effective concentration (EC50) in assay [3] is 13.9 µM (active). Turning to `Cc1ccc(NC(=O)NN(C)c2c(Cl)c(Cl)nn2C)cc1`, in assay [1], the half-maximal inhibitory concentration (IC50) was > 50 µM (not active). For the molecule `Cn1c(N)c(C(=O)COC(=O)C23CC4CC(CC(C4)C2)C3)c(=O)n(C)c1=O`, the IC50 in assay [1] is 2.26 µM (active).

For `CCC(C)(C)NC(=O)c1ccc(S(=O)(=O)N2CCCCCC2)cc1`, the 50% inhibitory concentration (IC50) in assay [1] is on record as 22.9 µM (not active). In the case of `CCOc1cc(C(c2c(C)n[nH]c2O)c2c(C)n[nH]c2O)ccc1OCc1ccc([N+](=O)[O-])cc1`, in assay [2], the AC50 was 0.281 µM (active). The EC50 in assay [3] was 0.159 µM (active). In the case of `CCCCOc1ccc(C(=O)N/C(=C\c2ccc(OC)cc2)C(=O)OCc2ccco2)cc1`, the AC50 in assay [5] was 14.1 µM (inconclusive); in assay [6], 7.94 µM (inconclusive). Besides, in assay [4], the IC50 was > 79 µM (inactive). Consider `COCc1nc2ccccc2n1Cc1ccc(Br)cc1`, for which, in assay [1], the IC50 is on record as 8.1 µM (not active). `CCc1ccc(NC(=O)c2ccccc2NC(=O)C2CCCO2)cc1` (configuration not stated): the EC50 in assay [7] was 2.64 µM (active).

Take `COc1cc(-c2cc3nc(NCCOc4ccccc4)ccn3n2)cc(OC)c1OC`: the IC50 in assay [4] is > 79 µM (inactive).

For the molecule `Cc1sc2nc(CSCC(=O)N(CCC#N)c3ccccc3F)nc(O)c2c1C`, the IC50 in assay [4] is > 79 µM (inactive). In the case of `COC(=O)c1ccc(/C=N/NS(=O)(=O)c2cc(C)ccc2C)cc1`, in assay [1], the concentration for half-maximal inhibition (IC50) is given as 6.58 µM (not active).
